Measured values published in patent US11661453B2 (Tesaro, Inc., priority 2017, dated 2023).

What was measured:
DLD1 BRCA2−/− cells = conditions: 300 nM for 24 or 48 hours
Description: (§1) The cells were subsequently analyzed for expression of Stimulator of Interferon Genes (STING) pathway proteins via Western blotting.

MDA-MB-436 cells = tested on: MDA-MB-436 cells
Description: as §1

[1] = tested on: MMTV-LPA1 breast (LPA-T22); test: Tumor growth inhibition, syngeneic MMTV-LPA1 breast model; format: in vivo, mouse; conditions: niraparib orally once daily, antibody intraperitoneally twice weekly
Description: (§2) A panel of 14 syngeneic or humanized xenograft models representing BRCA-proficient (wild-type) and BRCA-deficient (mutant) cancers derived from breast, lung, ovary, skin, sarcoma, bladder and colon tumors was established. The panel included the following genetically engineered mouse tumor models: 1) KrasG12D and PTEN null bladder (BL6078), 2) TP53 null sarcoma (SA9003), 3) MMTV-LPA1 breast (LPA-T22), 4) BRCA1 mutant breast (MDA-MB-436; also referred to as MM-436), 5) APC^Min heterozygous mutant skin (SK6005), and 6) BRCA1−/−, TP53−/−, KrasG12D ovarian (BRKras) models. While the bladder syngeneic model was BRCA1 wild-type, the sarcoma model harbored BRCA1 A122E and S123X heterozygous mutations. Specifically, mice were administered treatments after tumors reached 50-150 mm^3. […] The suboptimal dose administered for specific tumor models was as follows: 35 mg/kg daily for 5 consecutive days per week (QD×5/week) for the BR1126 tumor model, 35 mg/kg (QD×5/week) for the MDA-MB-436 tumor model, 30 mg/kg for the BRKras tumor model, and 25 mg/kg daily for the SK6005 tumor model. The anti-PD-1 antibody (RMP1-14/2C4) or the anti-PD-L1 antibody (10F.9G2) was administered twice weekly intraperitoneally at 10 mg/kg dose unless otherwise noted. […] Tumor growth was monitored twice per week.

[2] = tested on: TP53 null sarcoma (SA9003); test: Tumor growth inhibition, TP53 null sarcoma model; format: in vivo, mouse; conditions: niraparib orally once daily, antibody intraperitoneally twice weekly
Description: as §2

[3] = tested on: KrasG12D and PTEN null bladder (BL6078); test: Tumor growth inhibition, Kras G12D and PTEN null bladder model; conditions: mouse, in vivo
Description: as §2

PARP activity = PARP activity stimulated by DNA damage caused by hydrogen peroxide, various cell lines, cited from earlier work
[4] = tested on: cancer cell lines that have been silenced for BRCA-1 or BRCA-2, or carry BRCA-1 or BRCA-2 mutations; conditions: cited from earlier work
[5] = tested on: selected Ewing's sarcoma, ALL, NSCLC and SCLC cell lines, tumor cell lines carrying homozygous inactivation of the ATM gene; conditions: cited from earlier work
normal human cells = conditions: cited from earlier work
[6] = tested on: MDA-MB-436, CAPAN-1, GRANTA-519, OVCAR3, HT29, DLD-1, patient derived Ewing's sarcoma and TNBC xenograft models; conditions: xenograft models in mice; cited from earlier work
[7] = tested on: non-small-cell lung cancer, melanoma, and renal-cell cancer; conditions: Phase I clinical trial; cited from earlier work

In the case of `NC(=O)c1cccc2cn(-c3ccc([C@@H]4CCCNC4)cc3)nc12` [Niraparib, (3 S)-3-[4-{7-(aminocarbonyl)-2H-indazol-2-yl}phenyl]piperidine], the “mRNA expression of type-I interferon (IFNB1 or IFNA1)” value (DLD1 BRCA2−/− cells) is reported as “detected”, the “mRNA expression of type-I interferon (IFNB1)” value (MDA-MB-436 cells; 300 nM for 24 or 48 hours) is reported as “detected” and the “expression of STING pathway proteins (p-STING, STING, p-TBK1, TBK1, p-NF-κB p65, NF-κB p65)” value (MDA-MB-436 cells; 1 μM for 48 hours, Western blotting) is reported as “expression of STING pathway proteins”. For the same compound, the “tumor growth inhibition (TGI)” value [1] was 45%, the “tumor growth inhibition (TGI)” value [2] was 1% and the response to monotherapy [3] was “neither responsive”. For the same compound, the IC50 (PARP activity; read-out: IC50 of PARP activity in cell lines) was about 4 nM, the IC90 (PARP activity; read-out: inhibitory concentration at 90% of control (IC90) of PARP activity in cell lines) was about 50 nM and the “consequence on cell cycle” value ([4]; BRCA-defective cells) was “cell cycle arrest in G2/M followed by apoptosis”. The anti-proliferative activity ([4]; compared to wild type counterparts) was “selective anti-proliferative activity”, the cytotoxicity [5] was “selectively cytotoxic” and the “activity on normal human cells” value (normal human cells) was “weak activity”. For the same compound, the “antitumor activity in vivo” value [6] was “strong antitumor activity”.

For “nivolumab: anti-PD-1 monoclonal antibody (Human IgG4)”, the clinical response [7] is given as “complete or partial responses”.
